Measured values from ChEMBL document CHEMBL1201862, “PubChem BioAssay data set” (2004).
Activity calls are given as the source filed them.

Experiments:
[1] = molecular target: T1, Leucine aminopeptidase (Plasmodium falciparum 3D7, UniProt Q8IL11); experiment: P. falciparum M17LAP inhibitors, primary screen, biochemical, fluorogenic H-Leu-NHMec substrate, 1536-well (AID 1619); assay type: functional
T1 sequence (Q8IL11 whole entry): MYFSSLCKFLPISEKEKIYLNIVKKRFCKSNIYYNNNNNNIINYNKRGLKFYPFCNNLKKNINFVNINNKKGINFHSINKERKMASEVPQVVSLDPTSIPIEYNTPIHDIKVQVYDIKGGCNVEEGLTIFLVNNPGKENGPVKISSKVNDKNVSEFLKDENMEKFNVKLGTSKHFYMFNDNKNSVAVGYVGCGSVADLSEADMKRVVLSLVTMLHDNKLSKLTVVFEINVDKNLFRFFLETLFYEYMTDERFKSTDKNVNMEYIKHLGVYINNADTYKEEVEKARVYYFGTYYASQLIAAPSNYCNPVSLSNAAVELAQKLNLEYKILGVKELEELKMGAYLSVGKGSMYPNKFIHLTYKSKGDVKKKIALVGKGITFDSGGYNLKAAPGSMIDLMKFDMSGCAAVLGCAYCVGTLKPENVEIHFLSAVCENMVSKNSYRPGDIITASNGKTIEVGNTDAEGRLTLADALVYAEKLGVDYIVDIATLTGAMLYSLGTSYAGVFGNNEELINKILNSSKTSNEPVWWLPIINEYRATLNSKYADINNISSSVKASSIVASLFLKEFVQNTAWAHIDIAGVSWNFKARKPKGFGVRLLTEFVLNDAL

[2] = molecular target: Cytochrome P450 2C19 (Homo sapiens, UniProt P33261); experiment: Cytochrome panel assay with activity outcomes. Panel member name: p450-cyp2c19 Compounds with AC50 equal or less than 10 uM are considered active; assay type: functional; conditions: read-out: AC50
[3] = molecular target: Large T antigen (Simian virus 40, UniProt P03070); assay type: functional, Betapolyomavirus macacae;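 note: Confirmatory-stage PubChem screen for compounds that inhibit SV40 T antigen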
[4] = molecular target: Cytochrome P450 2D6 (Homo sapiens, UniProt P10635);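 note: CYP2D6 member of a cytochrome P450 panel assay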
[5] = molecular target: Nonstructural protein 1 (Influenza A virus, UniProt Q194T2); assay type: functional, Influenza A virus (A/California/07/2009(H1N1))
[6] = molecular target: T2, RNA-binding protein pos-1 (Caenorhabditis elegans, UniProt G5EF15); experiment: disruptors of C. elegans POS-1 RNA interaction – biochemical, fluorescence polarization, dose response (AID 1964);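 note: purified POS-1 fused to maltose binding protein made in E. coli; potency of compounds blocking POS-1 binding to fluorescent RNA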
T2 sequence (G5EF15 whole entry): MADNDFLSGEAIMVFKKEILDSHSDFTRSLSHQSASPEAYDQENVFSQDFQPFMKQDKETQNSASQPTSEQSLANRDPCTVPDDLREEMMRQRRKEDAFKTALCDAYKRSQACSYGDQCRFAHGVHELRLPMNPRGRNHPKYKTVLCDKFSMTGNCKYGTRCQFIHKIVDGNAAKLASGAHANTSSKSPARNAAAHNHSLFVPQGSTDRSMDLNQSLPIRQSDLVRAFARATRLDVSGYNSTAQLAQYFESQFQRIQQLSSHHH

[7] = NIH3T3 cell viability loss – ATP luminescence, mouse fibroblasts, counter-screen, dose response (AID 2010); assay type: functional, cell-based;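 note: cells exposed to compound for about 90 hours before reading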
[8] = molecular target: T3, Calpain-2 catalytic subunit (Sus scrofa, UniProt P43367); experiment: m-calpain protease blockers, concentration series – biochemical, fluorogenic peptide substrate, dose response (AID 1420); assay type: functional
T3 sequence (P43367 whole entry): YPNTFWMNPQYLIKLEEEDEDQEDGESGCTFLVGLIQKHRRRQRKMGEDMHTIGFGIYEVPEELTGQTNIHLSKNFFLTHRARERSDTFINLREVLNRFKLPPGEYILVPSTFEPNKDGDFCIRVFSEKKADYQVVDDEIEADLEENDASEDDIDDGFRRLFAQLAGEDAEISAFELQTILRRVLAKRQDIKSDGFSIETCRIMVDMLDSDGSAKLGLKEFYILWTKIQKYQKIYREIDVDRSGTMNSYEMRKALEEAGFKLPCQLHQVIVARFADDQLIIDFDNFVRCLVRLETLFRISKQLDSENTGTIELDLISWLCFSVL

[9] = Trypanosoma cruzi growth suppression in host cells – NIH3T3 host cells, beta-gal luminescence, confirmation (AID 2044); assay type: functional, cell-based;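 note: intracellular parasites grown in NIH/3T3 mouse fibroblasts as host cells; luminescent beta-galactosidase reporter signal from transgenic T. cruzi replicating inside host cells; inhibitors lower the luminescence signal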
[10] = molecular target: T4, Zinc finger protein mex-5 (Caenorhabditis elegans, UniProt Q9XUB2); experiment: potency of MEX-5 RNA-binding blockers – biochemical, C. elegans, fluorescence polarization, dose response (AID 1960)
T4 sequence (Q9XUB2 whole entry): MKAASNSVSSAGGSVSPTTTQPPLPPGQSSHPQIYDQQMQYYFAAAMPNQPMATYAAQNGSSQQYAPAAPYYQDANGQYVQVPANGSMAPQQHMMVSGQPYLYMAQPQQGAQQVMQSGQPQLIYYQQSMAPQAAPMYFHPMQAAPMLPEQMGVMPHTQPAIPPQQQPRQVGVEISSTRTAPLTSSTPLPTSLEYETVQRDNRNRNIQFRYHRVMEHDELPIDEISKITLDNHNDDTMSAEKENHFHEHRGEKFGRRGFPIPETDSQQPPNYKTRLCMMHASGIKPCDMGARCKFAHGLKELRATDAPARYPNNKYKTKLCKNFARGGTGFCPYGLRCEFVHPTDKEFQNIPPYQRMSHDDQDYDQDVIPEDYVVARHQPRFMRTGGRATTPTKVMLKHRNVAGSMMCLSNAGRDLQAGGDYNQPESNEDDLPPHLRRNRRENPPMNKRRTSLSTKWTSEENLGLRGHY

[11] = molecular target: T5, Protein skinhead-1 (Caenorhabditis elegans, UniProt P34707); assay type: functional
T5 sequence (P34707 whole entry): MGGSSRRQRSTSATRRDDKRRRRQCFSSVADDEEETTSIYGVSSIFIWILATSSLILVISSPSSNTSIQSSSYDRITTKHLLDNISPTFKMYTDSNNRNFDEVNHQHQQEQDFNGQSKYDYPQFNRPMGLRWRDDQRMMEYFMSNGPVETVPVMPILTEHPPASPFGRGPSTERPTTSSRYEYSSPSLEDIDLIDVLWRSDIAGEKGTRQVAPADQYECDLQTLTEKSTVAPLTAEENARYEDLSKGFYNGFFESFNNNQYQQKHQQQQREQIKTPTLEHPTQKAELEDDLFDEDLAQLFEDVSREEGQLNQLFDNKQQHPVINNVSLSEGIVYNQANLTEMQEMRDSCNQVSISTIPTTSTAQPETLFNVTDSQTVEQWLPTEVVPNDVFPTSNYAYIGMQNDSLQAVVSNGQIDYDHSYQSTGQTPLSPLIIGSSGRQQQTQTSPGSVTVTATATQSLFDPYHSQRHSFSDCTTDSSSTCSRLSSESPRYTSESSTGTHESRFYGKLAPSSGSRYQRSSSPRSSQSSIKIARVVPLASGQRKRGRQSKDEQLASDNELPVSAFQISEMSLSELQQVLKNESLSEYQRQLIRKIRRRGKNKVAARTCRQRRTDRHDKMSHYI

[12] = molecular target: T6, Protein RecA (Mycobacterium tuberculosis, UniProt P9WHJ3); experiment: Fluorescence Cell-Free Homogeneous Dose Retest to Identify Inhibitors of RecA-Intein Splicing Activity. [Related pubchem assays (depositor defined):AID2097, AID2223, AID489010, AID492950]; assay type: functional
T6 sequence (P9WHJ3 whole entry): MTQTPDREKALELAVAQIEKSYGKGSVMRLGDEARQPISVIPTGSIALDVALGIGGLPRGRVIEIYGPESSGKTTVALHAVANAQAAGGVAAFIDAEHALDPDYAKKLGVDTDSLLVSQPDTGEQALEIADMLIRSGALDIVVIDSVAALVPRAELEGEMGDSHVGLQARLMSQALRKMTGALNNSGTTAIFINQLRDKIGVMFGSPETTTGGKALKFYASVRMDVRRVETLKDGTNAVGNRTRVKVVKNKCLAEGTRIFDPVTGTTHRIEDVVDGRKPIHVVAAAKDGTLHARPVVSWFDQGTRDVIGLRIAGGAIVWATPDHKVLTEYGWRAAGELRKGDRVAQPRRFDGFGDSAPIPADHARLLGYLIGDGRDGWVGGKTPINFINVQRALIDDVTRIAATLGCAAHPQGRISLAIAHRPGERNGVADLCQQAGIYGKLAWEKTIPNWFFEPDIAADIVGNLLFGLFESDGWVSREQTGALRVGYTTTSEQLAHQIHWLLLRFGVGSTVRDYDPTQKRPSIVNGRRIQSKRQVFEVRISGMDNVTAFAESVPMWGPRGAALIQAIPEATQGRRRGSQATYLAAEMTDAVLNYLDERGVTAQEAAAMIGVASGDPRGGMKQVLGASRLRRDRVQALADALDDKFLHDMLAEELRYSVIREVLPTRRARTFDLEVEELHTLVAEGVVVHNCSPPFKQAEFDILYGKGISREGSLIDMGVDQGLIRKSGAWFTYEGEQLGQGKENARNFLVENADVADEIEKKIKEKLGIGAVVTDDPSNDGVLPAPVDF

[13] = molecular target: T7, Replicative DNA helicase DnaB (Mycobacterium tuberculosis, UniProt P9WMR3); experiment: DnaB intein splicing inhibitors, dose response, biochemical, cell-free fluorescence (AID 449749); assay type: functional
T7 sequence (P9WMR3 whole entry): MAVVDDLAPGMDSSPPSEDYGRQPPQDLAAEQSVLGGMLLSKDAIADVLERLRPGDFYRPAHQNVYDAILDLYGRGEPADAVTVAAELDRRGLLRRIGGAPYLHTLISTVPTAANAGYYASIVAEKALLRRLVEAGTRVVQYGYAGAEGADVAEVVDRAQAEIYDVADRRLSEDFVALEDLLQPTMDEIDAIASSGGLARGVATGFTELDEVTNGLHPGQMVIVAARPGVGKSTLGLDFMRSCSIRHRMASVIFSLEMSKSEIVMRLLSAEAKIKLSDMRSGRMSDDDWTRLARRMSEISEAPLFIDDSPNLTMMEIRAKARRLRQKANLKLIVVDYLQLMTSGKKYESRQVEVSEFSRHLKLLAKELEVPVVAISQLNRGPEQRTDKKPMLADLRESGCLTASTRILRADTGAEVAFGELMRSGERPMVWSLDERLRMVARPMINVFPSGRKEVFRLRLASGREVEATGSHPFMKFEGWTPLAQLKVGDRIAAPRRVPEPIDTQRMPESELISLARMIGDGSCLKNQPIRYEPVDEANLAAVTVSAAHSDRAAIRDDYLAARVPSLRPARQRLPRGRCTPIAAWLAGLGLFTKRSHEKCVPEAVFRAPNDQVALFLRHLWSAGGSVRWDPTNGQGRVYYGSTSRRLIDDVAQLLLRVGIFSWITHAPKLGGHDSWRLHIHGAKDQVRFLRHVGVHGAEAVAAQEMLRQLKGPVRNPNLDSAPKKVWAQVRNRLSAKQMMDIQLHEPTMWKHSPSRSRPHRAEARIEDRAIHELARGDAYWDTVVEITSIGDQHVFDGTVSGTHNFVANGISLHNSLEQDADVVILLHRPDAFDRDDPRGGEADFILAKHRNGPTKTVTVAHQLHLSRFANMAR

[14] = molecular target: FAD-linked sulfhydryl oxidase ALR (Homo sapiens, UniProt P55789); experiment: ALR-catalysed DTT oxidation blockers – biochemical, H2O2 detection, luminescence, cherry-pick, dose response (AID 493248)
Sequence of FAD-linked sulfhydryl oxidase ALR (P55789 whole entry): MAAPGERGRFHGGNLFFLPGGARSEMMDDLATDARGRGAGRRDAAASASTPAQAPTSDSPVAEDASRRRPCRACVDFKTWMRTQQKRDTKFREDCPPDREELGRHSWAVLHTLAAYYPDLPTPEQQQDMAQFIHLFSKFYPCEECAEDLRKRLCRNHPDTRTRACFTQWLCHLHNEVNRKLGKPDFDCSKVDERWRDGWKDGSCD

Sequence of Large T antigen (P03070 whole entry): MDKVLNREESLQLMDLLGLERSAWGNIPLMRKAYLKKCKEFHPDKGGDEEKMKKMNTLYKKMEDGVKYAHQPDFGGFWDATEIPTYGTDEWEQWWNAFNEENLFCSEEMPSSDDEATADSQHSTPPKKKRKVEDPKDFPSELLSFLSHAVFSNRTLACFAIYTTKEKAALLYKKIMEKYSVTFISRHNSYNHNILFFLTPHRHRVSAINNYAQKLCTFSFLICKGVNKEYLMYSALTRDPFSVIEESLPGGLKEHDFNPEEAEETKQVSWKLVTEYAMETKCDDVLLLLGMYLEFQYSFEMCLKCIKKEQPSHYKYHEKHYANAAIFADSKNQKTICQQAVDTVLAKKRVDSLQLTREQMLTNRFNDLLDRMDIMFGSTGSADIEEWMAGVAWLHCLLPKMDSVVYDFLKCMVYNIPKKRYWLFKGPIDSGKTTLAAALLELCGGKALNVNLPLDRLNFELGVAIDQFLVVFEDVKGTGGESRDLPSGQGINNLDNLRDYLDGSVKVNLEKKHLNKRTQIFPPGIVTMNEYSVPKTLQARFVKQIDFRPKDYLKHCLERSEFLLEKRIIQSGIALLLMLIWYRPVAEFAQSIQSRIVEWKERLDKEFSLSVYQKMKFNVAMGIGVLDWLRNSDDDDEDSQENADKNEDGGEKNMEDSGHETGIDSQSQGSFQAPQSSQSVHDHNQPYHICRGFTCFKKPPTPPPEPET
Sequence of Nonstructural protein 1 (Q194T2 whole entry, the tested form may be a part): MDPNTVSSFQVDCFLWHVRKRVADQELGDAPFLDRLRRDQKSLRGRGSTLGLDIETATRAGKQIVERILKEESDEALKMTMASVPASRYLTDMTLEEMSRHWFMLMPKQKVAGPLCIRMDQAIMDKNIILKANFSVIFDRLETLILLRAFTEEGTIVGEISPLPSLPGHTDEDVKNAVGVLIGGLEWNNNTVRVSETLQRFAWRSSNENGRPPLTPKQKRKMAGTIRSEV
Sequence of Cytochrome P450 2C19 (P33261 whole entry): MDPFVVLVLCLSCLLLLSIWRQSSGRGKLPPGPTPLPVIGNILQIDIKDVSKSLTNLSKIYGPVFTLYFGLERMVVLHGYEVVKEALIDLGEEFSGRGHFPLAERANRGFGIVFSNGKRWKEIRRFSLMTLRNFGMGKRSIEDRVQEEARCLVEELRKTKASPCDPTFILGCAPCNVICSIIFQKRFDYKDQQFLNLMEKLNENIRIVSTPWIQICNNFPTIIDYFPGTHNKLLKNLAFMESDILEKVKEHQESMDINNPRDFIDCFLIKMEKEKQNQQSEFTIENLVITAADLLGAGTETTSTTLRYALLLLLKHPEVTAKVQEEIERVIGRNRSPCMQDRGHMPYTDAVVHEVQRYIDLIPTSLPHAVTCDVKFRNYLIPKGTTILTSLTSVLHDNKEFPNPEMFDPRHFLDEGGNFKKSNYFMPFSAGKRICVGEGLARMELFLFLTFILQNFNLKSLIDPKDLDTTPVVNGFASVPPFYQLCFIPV
Sequence of Cytochrome P450 2D6 (P10635 whole entry): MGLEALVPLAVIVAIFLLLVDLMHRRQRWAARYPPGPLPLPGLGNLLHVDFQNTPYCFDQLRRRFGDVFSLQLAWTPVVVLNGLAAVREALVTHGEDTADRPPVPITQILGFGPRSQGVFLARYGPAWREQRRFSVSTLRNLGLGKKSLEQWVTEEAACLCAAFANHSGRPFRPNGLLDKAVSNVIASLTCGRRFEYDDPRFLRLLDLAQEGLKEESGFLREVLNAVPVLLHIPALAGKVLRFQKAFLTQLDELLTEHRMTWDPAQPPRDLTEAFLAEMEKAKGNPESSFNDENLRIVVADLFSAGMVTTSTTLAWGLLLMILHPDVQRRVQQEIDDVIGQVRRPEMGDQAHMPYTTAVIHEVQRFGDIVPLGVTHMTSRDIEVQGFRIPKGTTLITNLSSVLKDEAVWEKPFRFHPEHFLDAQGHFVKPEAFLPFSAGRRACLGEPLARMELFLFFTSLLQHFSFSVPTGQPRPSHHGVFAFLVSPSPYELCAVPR

O=C(CN1C(=O)c2ccccc2S1(=O)=O)NC1CC2CCC1C2 (stereo unspecified)
IC50 [1]: 75.4 µM (active)

O=C(CSc1nc[nH]n1)Nc1nnc(-c2ccccc2)s1
IC50 [1]: 43.1 µM (active)

CCOC(=O)c1c(NC(=O)C2C3CCC(O3)C2C(=O)O)sc(C)c1-c1ccc(F)cc1 (stereo unspecified)
IC50 [1]: 8.78 µM (active)

c1nc(NCc2ccc3c(c2)OCO3)n[nH]1
IC50 [1]: 17.9 µM (active)

Cc1cc(C)nc(NS(=O)(=O)c2ccc(N/C=C3\CCCC3=O)cc2)n1
IC50 [1]: 56.7 µM (active)

COCCSc1nnc(NC(=O)c2cc(C(=O)OC)cc([N+](=O)[O-])c2)s1
IC50 [1]: 60.2 µM (active)

O=C(O)C1CCCCC1C(=O)Nc1cc(Cl)ccc1Cl (stereo unspecified)
AC50 [2]: 25.1 µM (inconclusive)
IC50 [1]: 25 µM (active)

CCN(CC)c1ccc(NC(=O)CSc2ccsc2[N+](=O)[O-])c(C)c1
IC50 [1]: 1.9 µM (active)

O=C(NCC1COc2ccccc2O1)C1C2C=CC3(CN(Cc4cccs4)C(=O)C13)O2 (stereo unspecified)
IC50 [1]: 7.96 µM (active)

COc1ccc(N2CCN(C(CNC(=O)C3CCCCC3)c3cccnc3)CC2)cc1 (stereo unspecified)
IC50 [3]: 27 µM (active)
AC50 [2]: 7.08 µM (inconclusive)
AC50 [4]: 0.355 µM (inconclusive)

Cc1c(NN=C2C(=O)NC(=S)NC2=O)c(=O)n(-c2ccccc2)n1C
IC50 [5]: 2.77 µM (active)

Fc1ccc(CNc2nc(-c3ccccc3)nc3ccccc23)cc1
EC50 [6]: > 300 µM (not active)
EC50 [7]: > 30 µM (not active)
IC50 [8]: 6.57 µM (not active)
EC50 [9]: 0.107 µM (active)
EC50 [10]: > 300 µM (not active)
IC50 [11]: 32.9 µM (active)

CCOC(=O)c1cnc(-n2[nH]c(C)c(Cc3ccccc3)c2=O)[nH]c1=O
EC50 [12]: 5.99 µM (active)
AC50 [13]: 9.77 µM (active)
IC50 [5]: 3.4 µM (active)

Nc1nnnn1CC(=O)N/N=C/c1cc([N+](=O)[O-])ccc1O
IC50 [5]: 3.13 µM (active)

COc1ccccc1/C=C/C=N/NC(=O)CCC1C(=O)NN=C1C (stereo unspecified)
IC50 [1]: 57.2 µM (active)

COc1cc(/C=N/Nc2ccccn2)ccc1O
IC50 [3]: 5.41 µM (active)

O=C(N/N=C\C1C(=O)NC(=S)N(c2ccccc2)C1=O)c1ccc(O)cc1 (stereo unspecified)
EC50 [6]: > 300 µM (not active)
EC50 [10]: 63.7 µM (active)
IC50 [5]: 9.86 µM (active)

COc1cc(/C=N/NS(=O)(=O)c2ccc(Br)cc2)ccc1O
AC50 [14]: 1.7 µM (active)
IC50 [3]: 19.4 µM (active)
